Assay results taken from patent publication US20100004174A1, “USE OF THYMOSIN ALPHA 1 FOR THE PREPARATION OF A MEDICAMENT FOR THE PREVENTION AND TREATMENT OF AUTOIMMUNE DISEASES” (SIGMA-TAU INDUSTRIE FARMACEUTICHE, priority 2006, published 2010).
No end group written: not given here.

Legend:
[1] = system: CD4+CD25+ lymphocytes isolated from the lamina propria; test: Cytokine determination by ELISA on CD4+CD25+ lamina propria lymphocytes of mice with TNBS colitis; assay type: in vivo; conditions: TNBS+Tα1 mice; cells stimulated in vitro 48 h with anti-CD3 and anti-CD28, FIG. 4
Method: (§1) Treatment with thymosin alpha 1. Tα1 (purchased from Sigma, St. Louis, Mo., USA; product no. T3410; molecular formula C129H215N33O55) and the scrambled peptide were provided in the form of sterile dried powders. The powders were reconstituted in sterile water (endotoxin levels were <0.03 pg/ml, by standard Limulus lysate assay). Thymosin alpha 1 was administered at a dosage of 200 microgrammi/kg by intraperitoneal injection for 6 consecutive days starting from the day of TNBS colitis induction.
Cytokine determination. This was carried out via specific ELISA tests (ELISA kit, R&D Systems Inc, Minneapolis, Minn.) on the supernatants of lymphocyte cell cultures of CD4^+CD^25+ phenotype isolated from the lamina propria and stimulated in vitro for 48 h with antibodies directed against CD3 and CD28 molecules expressed on the lymphocytes (PharMingen, BD, Palo Alto, Calif.).
(§2) All the inflammatory and cytokine assessments were carried out the day after the end of treatment with thymosin alpha 1.

[2] = system: EAE (experimental autoimmune encephalitis); test: EAE model induced with MOG35-55 peptide in mice, clinical score and spinal cord histology; assay type: in vivo, C57BL6 mice
Method: To this end, an EAE model was used envisaging the induction of disease by administering a peptide deriving from myelin in susceptible animals. The anima were treated with thymosin alpha 1, whose efficiency was evaluated according to clinical and histological parameters.
EAE is induced in C57BL6 mice by injecting 100 microlitres of emulsion consisting of 100 microgrammes of MOG35-55 (a peptide fragment of a myelinic glycoprotein) in complete Freund adjuvant (CFA, 4 microgrammes/ml) at the base of the tail. EAE induction is favoured by the intraperitoneal administration of the pertoxic toxin at a dosage of 200 ng/mouse the day of immunisation and three days later. The treatment with thymosin alpha 1 (200 ng/Kg) is carried out via intraperitoneal injection according to two experimental designs. In the first case, thymosin is administered starting from the day of MOG administration and for three consecutive days thereafter (Tα1+MOG). In the second case, thymosin is administered starting from the tenth day after MOG administration and for three consecutive days thereafter (MOG+Tα1).
The mice were clinically evaluated daily according to the following parameters: 0, normal; 1, flacid tail or weakness of hind legs; 2, flacid tail associated with weakness of hind legs; 3, partial paralysis of hind legs; 4, total paralysis of hind legs; 5, moribund state. […]

TNBS colitis = test: TNBS-induced colitis model of IBD (DAS, MAS, MPO); assay type: in vivo, mice
Method: To this end, an IBD model was used envisaging the induction of the disease by intracolonic administration of a haptenised derivative of trinitrobenzene sulfonic acid (TNBS). The animals were treated with thymosin alpha 1, whose efficacy was evaluated according to clinical, histological and immunological parameters.
The application of hapten TNBS in the colon causes acute and chronic colitis in the rodents (Fiorucci S, Antonelli E, Distrutti E, Del Soldato P, Flower R J, Clark M J, Morelli A, Perretti M, Ignarro L J. NCX-1015, a nitric-oxide derivative of prednisolone, enhances regulatory T cells in the lamina propria and protects against 2,4,6-trinitrobenzene sulfonic acid-induced colitis in mice. Proc Natl Acad Sci U S A. 2002, 99:15770-5).
The animals were monitored daily for any onset of diarrhea, loss of body weight, blood in the faeces and to check their survival (correlated with the degree of activity of the disease, DAS). At the end of the experiment, the surviving mice were sacrificed, their colon dissected and the microscopic damage was evaluated (called mucosal activity score—MAS). The tissue segments were then used in order to measure the Myeloperoxidase (MPO) activity (an inflammation index).
The sectioned colons were examined under a microscope (×5) and classified according to their microscopic lesions on a scale from 0 to 10 based on criteria reflecting the inflammation, such as hyperemia, bowel thickening, and extension of ulcers.
MPO assays. Neutrophil infiltration in the colon was monitored by measuring MPO activity by means of a spectrophotometric assay with trimethylbenzidine (TMB) as a substrate according to a previously published method (Fiorucci S, Antonelli E, Distrutti E, Del Soldato P, Flower R J, Clark M J, Morelli A, Perretti M, Ignarro L J. NCX-1015, a nitric-oxide derivative of prednisolone, enhances regulatory T cells in the lamina propria and protects against 2,4,6-trinitrobenzene sulfonic acid-induced colitis in mice. Proc Natl Acad Sci U S A. 2002, 99:15770-5). The activity is expressed in U per mg of protein.
as §1, §2

[3] = TNBS colitis, 200 microgrammi/kg intraperitoneal for 6 consecutive days, assessed the day after end of treatment, FIG. 3

Substance: thymosin alpha 1 (Ac-SDAAVDTSSEITTKDLKEKKEVVEEAEN; ends and bridges not checked; UniProt P06454 2-29, looked up) [thymic peptide found in nature; purchased from Sigma, product no; T3410]
- IL-10 production [1]: clear prevalence of IL-10 production
- inflammatory/anti-inflammatory cytokine production pattern (IFN-γ, IL-17, IL-10) [1]: significantly disrupted
- de-myelination, histological analysis of semifine spinal chord sections coloured with osmium tetroxide ([2]; MOG-immunised mice treated with thymosin alpha 1, FIG. 2): no significant sign of de-myelination
- overall effect on EAE incidence and neuropathological severity ([2]; conclusion from FIG. 1 and FIG. 2): protective effect
- DAS (degree of activity of the disease) (TNBS colitis; [3]): drastic reduction
- MAS (mucosal activity score) (TNBS colitis; [3]): drastic reduction
- MPO (myeloperoxidase) activity in colon (TNBS colitis; [3]): drastic reduction
- overall effect on the severity of IBD (TNBS colitis; experimental models of colitis, conclusion): protective effect
